Reference: ChEMBL document CHEMBL1201862, “PubChem BioAssay data set” (2004)
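Interpolation was linear, between the two tested concentrations surrounding the appropriate level; five concentrations were tested over 48 hours in 96-well plates. Abbreviation: GI50, concentration required for 50% inhibition of growth.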 Activity calls are given as the source filed them. No stated cut-off is given here; in the data, active = GI50 up to about 1.1 µM and inactive = higher.

Key:
Test in all cases: growth of human tumour cells (NCI), 48 h
[1] = tested on: A549
[2] = tested on: ACHN
[3] = tested on: CAKI-1
[4] = tested on: CCRF-CEM
[5] = tested on: HCC 2998
[6] = tested on: HCT-116
[7] = tested on: KM12
[8] = tested on: MOLT-4
[9] = tested on: Malme-3M
[10] = tested on: NCI-H226
[11] = tested on: OVCAR-4
[12] = tested on: OVCAR-5
[13] = tested on: OVCAR-8
[14] = tested on: RPMI-8226
[15] = tested on: SK-MEL-28
[16] = tested on: SK-MEL-2
[17] = tested on: SNB-75
[18] = tested on: UACC-257
[19] = tested on: SR

Structure (SMILES) | GI50 [1] | GI50 [2] | GI50 [3] | GI50 [4] | GI50 [5] | GI50 [6] | GI50 [7] | GI50 [8] | GI50 [9] | GI50 [10] | GI50 [11] | GI50 [12] | GI50 [13] | GI50 [14] | GI50 [15] | GI50 [16] | GI50 [17] | GI50 [18] | GI50 [19]
O=C(CC(=O)C1=CNc2ccccc2S1)C(=O)Nc1ccc(Cl)cc1 | > 50 µM (inactive) | > 50 µM (inactive) | > 50 µM (inactive) | > 50 µM (inactive) | > 50 µM (inactive) | > 50 µM (inactive) | > 50 µM (inactive) | > 50 µM (inactive) | > 50 µM (inactive) | 49.4 µM (inactive) | > 50 µM (inactive) | > 50 µM (inactive) | > 50 µM (inactive) | > 50 µM (inactive) | > 50 µM (inactive) | > 50 µM (inactive) | > 50 µM (inactive) | > 50 µM (inactive) | 
Cc1ccc(/N=N/c2c(C)nn(-c3ccccc3)c2C)c(Br)c1 | > 100 µM (inactive) | > 100 µM (inactive) | > 100 µM (inactive) | 27 µM (inactive) | > 100 µM (inactive) | 41.3 µM (inactive) | 95.5 µM (inactive) | 64 µM (inactive) | > 100 µM (inactive) | > 100 µM (inactive) | > 100 µM (inactive) | > 100 µM (inactive) | > 100 µM (inactive) | 36 µM (inactive) | > 100 µM (inactive) | > 100 µM (inactive) | > 100 µM (inactive) | 89.7 µM (inactive) | 
CCCCCCCCCCCCCCCCc1c(O)nc(NC#N)nc1C(=O)OC | > 25 µM (inactive) | > 25 µM (inactive) |  | > 25 µM (inactive) | > 25 µM (inactive) | > 25 µM (inactive) | > 25 µM (inactive) | > 25 µM (inactive) | > 25 µM (inactive) | > 25 µM (inactive) | > 25 µM (inactive) | > 25 µM (inactive) | > 25 µM (inactive) | > 25 µM (inactive) | > 25 µM (inactive) | > 25 µM (inactive) | > 25 µM (inactive) | > 25 µM (inactive) | 
O=C(Nc1nc2ncn(CCOC(=O)c3ccccc3)c2c(=S)[nH]1)c1ccccc1 | 66.2 µM (inactive) | > 100 µM (inactive) | > 100 µM (inactive) | > 100 µM (inactive) | > 100 µM (inactive) | > 100 µM (inactive) | > 100 µM (inactive) |  | 42.5 µM (inactive) | 47.5 µM (inactive) | 23.5 µM (inactive) | > 100 µM (inactive) | 45.6 µM (inactive) | > 100 µM (inactive) | 42.3 µM (inactive) | 41.6 µM (inactive) | 23.8 µM (inactive) | 55.8 µM (inactive) | 
CC1CN1c1c(C(=O)/C=C/c2ccc(Cl)cc2)c(-c2ccccc2)nn(C)c1=O (centres undefined) | 4.42 µM (inactive) | 2.33 µM (inactive) | 4.74 µM (inactive) | 2.24 µM (inactive) | 1.99 µM (inactive) | 2.52 µM (inactive) | 3.3 µM (inactive) | 2.24 µM (inactive) | 8.97 µM (inactive) | 4.99 µM (inactive) | 2.61 µM (inactive) | 5.47 µM (inactive) | 2.55 µM (inactive) |  | 3.89 µM (inactive) | 2.4 µM (inactive) | 2.65 µM (inactive) | 3.67 µM (inactive) | 
Cc1cc(C(O)CCCc2ccccc2)cc(C)c1O (centres undefined) | 32.7 µM (inactive) | 24.2 µM (inactive) |  | 27.7 µM (inactive) | 74.1 µM (inactive) |  | 29.6 µM (inactive) | 19.4 µM (inactive) | 18.9 µM (inactive) | 24 µM (inactive) |  | 43.9 µM (inactive) | 47.5 µM (inactive) | 24.1 µM (inactive) | 34.4 µM (inactive) | 33.8 µM (inactive) | 16.4 µM (inactive) | 25.8 µM (inactive) | 
Cc1nc2c(nc1C)C(=O)C1=C(C2=O)C2C=CC1CC2 | 19.4 µM (inactive) | 11.7 µM (inactive) | 18.3 µM (inactive) | 1.1 µM (active) | 29.4 µM (inactive) | 1.54 µM (inactive) | 13.5 µM (inactive) | 1.32 µM (inactive) | 11.8 µM (inactive) | 14.5 µM (inactive) | 1.93 µM (inactive) | 21.3 µM (inactive) | 3.48 µM (inactive) | 2.17 µM (inactive) | 18.3 µM (inactive) | 13.2 µM (inactive) | 28.6 µM (inactive) | 4.31 µM (inactive) | 
CCOC(=O)C1(Cc2ccc3ccccc3c2)CCCCCN1 (centres undefined) | 52.4 µM (inactive) | 58.2 µM (inactive) | 9.23 µM (inactive) |  | 19.1 µM (inactive) |  |  | 4.91 µM (inactive) | 16.5 µM (inactive) |  | 31.4 µM (inactive) |  | 39.6 µM (inactive) | 5.6 µM (inactive) | 23.3 µM (inactive) |  | 2.78 µM (inactive) |  | 
CC1C2=CC=C(O2)C(C)(C)C2=CC=C(O2)C(C)(C)C2=CC=C(O2)C(C)(C)C2=CC=C1O2 | > 100 µM (inactive) | > 100 µM (inactive) | > 100 µM (inactive) | > 100 µM (inactive) | > 100 µM (inactive) | > 100 µM (inactive) | > 100 µM (inactive) | > 100 µM (inactive) | > 100 µM (inactive) | > 100 µM (inactive) | > 100 µM (inactive) | > 100 µM (inactive) | > 100 µM (inactive) |  | > 100 µM (inactive) | > 100 µM (inactive) |  | > 100 µM (inactive) | > 100 µM (inactive)
CC1=C(C)C(=O)c2c(cc3ccccn23)C1=O | 18.4 µM (inactive) | 32.2 µM (inactive) |  | 27 µM (inactive) | 15.5 µM (inactive) |  | 16.6 µM (inactive) | 24.2 µM (inactive) | 4.9 µM (inactive) | 26.8 µM (inactive) | 27.8 µM (inactive) | 45.6 µM (inactive) | 22.8 µM (inactive) | 15.8 µM (inactive) | 19 µM (inactive) |  | 26.4 µM (inactive) |  | 23.3 µM (inactive)
O=C(N/N=C1\C(=O)N(c2nccs2)C(=O)C(=O)C1c1nc2ccccc2s1)c1ccccc1O (centres undefined) | 52.1 µM (inactive) | 28.6 µM (inactive) | > 100 µM (inactive) | 39.5 µM (inactive) | 15 µM (inactive) | 29.9 µM (inactive) | 54.5 µM (inactive) |  | > 100 µM (inactive) | 71.1 µM (inactive) | 39.8 µM (inactive) | > 100 µM (inactive) | 43 µM (inactive) | 61.4 µM (inactive) | 88.1 µM (inactive) | > 100 µM (inactive) | 3.3 µM (inactive) | 35.7 µM (inactive) | 
CN/N=C(/Cc1occc(=O)c1O)C(=O)Nc1ccccc1C | > 100 µM (inactive) | > 100 µM (inactive) | > 100 µM (inactive) | > 100 µM (inactive) | > 100 µM (inactive) | > 100 µM (inactive) | > 100 µM (inactive) | > 100 µM (inactive) | > 100 µM (inactive) | > 100 µM (inactive) | > 100 µM (inactive) | > 100 µM (inactive) | > 100 µM (inactive) | > 100 µM (inactive) | > 100 µM (inactive) | > 100 µM (inactive) |  | > 100 µM (inactive) | > 100 µM (inactive)
c1ccc([P+](c2ccccc2)(c2ccccc2)C2Sc3ccccc3S2)cc1 | 15 µM (inactive) | 17.3 µM (inactive) | 14.6 µM (inactive) | 13.8 µM (inactive) | 15.7 µM (inactive) | 12.8 µM (inactive) | 21.9 µM (inactive) |  | 13.9 µM (inactive) | 12.5 µM (inactive) | 18.9 µM (inactive) | 19.7 µM (inactive) | 15.1 µM (inactive) | 16.7 µM (inactive) | 13.6 µM (inactive) |  | 17.8 µM (inactive) | 16.4 µM (inactive) | 
COC(=O)C(=O)C(C#N)c1nc2ccccc2s1 (centres undefined) | > 100 µM (inactive) | > 100 µM (inactive) | > 100 µM (inactive) | 75.2 µM (inactive) | > 100 µM (inactive) | 97.1 µM (inactive) |  | 60.4 µM (inactive) | > 100 µM (inactive) | 23.9 µM (inactive) | > 100 µM (inactive) | > 100 µM (inactive) | > 100 µM (inactive) | > 100 µM (inactive) | > 100 µM (inactive) | > 100 µM (inactive) | 42.9 µM (inactive) | > 100 µM (inactive) | 
Cc1cc(Br)c(N2C3=C(CC4=C2CCCC4=O)C(=O)CCC3)c(Br)c1 | 39.8 µM (inactive) | 46.8 µM (inactive) | > 100 µM (inactive) | 10.3 µM (inactive) | > 100 µM (inactive) |  | 62.5 µM (inactive) | 15.4 µM (inactive) |  | 72.1 µM (inactive) | 93.5 µM (inactive) | > 100 µM (inactive) | 44.6 µM (inactive) | 27.4 µM (inactive) | > 100 µM (inactive) |  | 46.1 µM (inactive) |  | 36.6 µM (inactive)
Nc1ccc(C2=N/C(=C\c3cccc(N)c3)C(=O)O2)cc1 | > 100 µM (inactive) | > 100 µM (inactive) | > 100 µM (inactive) | 67.3 µM (inactive) | > 100 µM (inactive) |  | > 100 µM (inactive) | > 100 µM (inactive) | > 100 µM (inactive) |  | > 100 µM (inactive) | > 100 µM (inactive) | > 100 µM (inactive) |  | > 100 µM (inactive) | > 100 µM (inactive) |  |  | > 100 µM (inactive)
CCOC(=O)C1(C)CCCCC(=O)N1 (centres undefined) | > 100 µM (inactive) | > 100 µM (inactive) | > 100 µM (inactive) |  | > 100 µM (inactive) |  |  |  | > 100 µM (inactive) |  | > 100 µM (inactive) |  | > 100 µM (inactive) |  | > 100 µM (inactive) |  | > 100 µM (inactive) |  | 
